Source: US9260731B2 (RELIANCE INDUSTRIES LIMITED, priority 2012, dated 2016)
Where two headings read alike, the source gives them in different places.

How the values were obtained:
[1] = system: solvent-tolerant mutant C. acetobutylicum MTCC 5587; experiment: Rhodamine 6G accumulation on AT agar, solvent-tolerant mutant; format: cell-based, Clostridium acetobutylicum; details: 100 μg/ml in AT agar, 24 h, 37° C., anaerobic
Experimental: (§1) Cells of overnight culture of wild type and solvent-tolerant mutant C. acetobutylicum MTCC 5587 were spotted on AT agar with or without rhodamine 6G (100 μg/ml) and incubated at 37° C. in anaerobic chamber for 24 h. Accumulation of rhodamine 6G was monitored under UV light (Lazaroaie, 2009).

[2] = system: wild type C. acetobutylicum; experiment: Rhodamine 6G accumulation on AT agar, wild type; format: cell-based, Clostridium acetobutylicum; details: 100 μg/ml in AT agar, 24 h, 37° C., anaerobic
Experimental: as §1

[3] = system: C. acetobutylicum MTCC 5587 (mutant strain B90)
Experimental: Chemical mutagenesis was carried out using MNNG (1-methyl-3-nitro-1-nitrosoguanidine). Alternate thioglycolate (AT) media was inoculated with C. acetobutylicum ATCC 4259 from the stab culture. After 12 h growth at 37° C., the culture was harvested and centrifuged. The cell pellet was washed with 2 ml citrate buffer (pH 5.8) and 100 μl of MNNG (stock solution 100 mg/ml prepared in sterilized distilled water) was added to the cells, incubated at 30° C. for 70 min. The mutagenised cell mass was centrifuged and the supernatant discarded appropriately in biohazard containers. The cells were washed twice with AT broth and resuspended in 1 ml AT broth.
(§2) The tolerance and growth profile of the mutant was monitored with respect to time.

[4] = system: C. acetobutylicum ATCC 4259 (wild type strain)
Text: as §2

What does the source list for `CCN=c1cc2oc3cc(NCC)c(C)cc3c(-c3ccccc3C(=O)OCC)c-2cc1C.Cl` [rhodamine 6G]?
accumulation of rhodamine 6G intracellularly (colony colour under UV light) [1]: high accumulation; accumulation of rhodamine 6G (colony colour under UV light) [2]: comparatively lower dye accumulation

Which results are given for n-butanol?
growth in presence of butanol ([3]; 3.8% butanol): no growth; growth in presence of butanol ([3]; 4% butanol): no growth; growth in presence of butanol ([3]; at the highest tolerated levels of butanol (up to […] v/v)): extremely slow and feeble; butanol tolerated in the AT medium ([3]; mutant strain, AT medium): up to 3.5 % (v/v); butanol tolerated in the medium, beyond which there was cessation of growth [4]: up to 1.5%
